Measurements reported in patent EP3235813A1, “AZA-TETRA-CYCLO DERIVATIVES” (CIDQO 2012, S.L., priority 2016, dated 2017).

How the values were obtained:
[1] = target: T1, 11β-HSD2 (Homo sapiens, UniProt P80365); assay: Determination of 11β-HSD2 inhibition in HEK293 cells stably transfected with the 11β-HSD2 gene (cortisol to cortisone, LC/MS); type: cell-based; settings: assay concentrations of 10, 1, 0.1 µM, 2 hours
T1 construct: expressed in transfected cells; host or cells: HEK293 cells, stably transfected
T1 sequence (P80365 1-405): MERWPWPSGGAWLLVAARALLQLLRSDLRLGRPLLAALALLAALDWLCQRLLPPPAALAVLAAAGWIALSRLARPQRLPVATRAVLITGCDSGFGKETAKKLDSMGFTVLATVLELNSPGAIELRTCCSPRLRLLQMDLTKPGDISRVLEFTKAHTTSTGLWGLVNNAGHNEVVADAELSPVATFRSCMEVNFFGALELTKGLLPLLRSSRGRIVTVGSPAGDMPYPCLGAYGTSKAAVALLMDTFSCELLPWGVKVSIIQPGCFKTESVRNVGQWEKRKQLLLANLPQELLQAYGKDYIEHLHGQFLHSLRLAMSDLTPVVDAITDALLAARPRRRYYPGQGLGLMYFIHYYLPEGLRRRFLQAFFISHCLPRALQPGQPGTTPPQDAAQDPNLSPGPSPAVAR
Experimental: 11β-HSD2 activity was determined in cells that are incubated with substrate (cortisol) and product (cortisone) is determined by LC/MS. Cells are plated at 2 x 10^4 cells/well in a 96-well tissue culture microplate and incubated overnight at @37° C in 5% CO2 95% O2. Compounds to be tested are solubilized in 100% DMSO at 10 mM and serially diluted in water and 10% DMSO to final concentration in 10% DMSO. 10 µl of each test dilution is dispensed into the well of a 96-well microplate (assay concentrations of 10, 1, 0.1 µM). Low and high control wells contain 10 µl of 10% DMSO. A solution of DMEM is prepared containing 1% penicillin, 1% streptomycin and 300 nM […]. Medium is removed from cell assay plate and DMEM solution (100 µl) added to each well. Cells are incubated for 2 hours @37° C in 5% CO2 95% O2. Following incubation medium is removed from each well into 500 µl ethyl acetate mixed by vortex and incubated at room temperature for 5 minutes. A calibration curve of known concentrations of cortisone in assay medium is also set up and added to 500 µl ethyl acetate vortexed and incubated as above. The supernatant is removed to a 96 deep well plate and dried down under liquid nitrogen at 65°C. Each well is solubilised in 100 µl 70:30 H2O:AC and removed to a 96 well v bottomed plate for LC/MS analysis.

[2] = target: T2, 11β-HSD1 (Homo sapiens, UniProt P28845); assay: Determination of 11β-HSD1 inhibition in HEK293 cells stably transfected with the 11β-HSD1 gene (cortisone to cortisol, LC/MS); type: cell-based; parameters: expressed in transfected cells; host or cells: HEK293 cells, stably transfected; settings: 10 µM compound, 300 nM cortisone, 2 hours, read-out: HSD1 % inh in cells (10 µM)
Experimental: 11β-HSD1 activity was determined in cells that are incubated with substrate (cortisone) and product (cortisol) is determined by LC/MS. Cells are plated at 2 x 10^4 cells/well in a 96-well tissue culture microplate and incubated overnight at […] in 5% CO2 95% O2. Compounds to be tested are solubilized in 100% DMSO at 10 mM and serially diluted in water and 10% DMSO to final concentration 100 µM in 10% DMSO. 10 µl of each test dilution is dispensed into the well of a 96-well microplate (assay concentration of 10 µM). Low and high control wells contain 10 µl of 10% DMSO. A solution of DMEM is prepared containing 1% penicillin, 1% streptomycin and 300 nM cortisone. Medium is removed from cell assay plate and DMEM solution (100 µl) added to each well. Cells are incubated for 2 hours […] in 5% CO2 95% O2. Following incubation medium is removed from each well into 500 µl ethyl acetate mixed by vortex and incubated at room temperature for 5 minutes. A calibration curve of known concentrations of cortisol in assay medium is also set up and added to 500 µl ethyl acetate vortexed and incubated as above. The supernatant is removed to a 96 deep well plate and dried down under liquid nitrogen at 65°C. Each well is solubilised in 100 µl 70:30 H2O:ACN and removed to a 96 well v bottomed plate for LC/MS analysis.

[3] = target: T2, 11β-HSD1; assay: Determination of the 11β-HSD1 inhibition in Human Liver Microsomes (3H-cortisone to 3H-cortisol conversion, scintillation proximity assay); type: biochemical; parameters: tissue Celsis In-vitro Technologies; host or cells: mixed sex human liver microsomes; settings: mixed sex, 1 mM NADPH, 37°C, 30 minutes, read-out: HSD1 IC50 in HLM
Experimental: 11β-HSD1 activity was determined in mixed sex, Human Liver Microsomes (Celsis In-vitro Technologies) by measuring the conversion of ^3H-cortisone to ^3H-cortisol. Percentage inhibition was determined relative to a no inhibitor control. 5 µg of Human Liver microsomes was pre-incubated at 37°C for 10 minutes with inhibitor (assay concentrations of 1, 0.5, 0.1, 0.05, 0.01, 0.005, 0.001 and 0.0005 µM) and 1 mM NADPH in a final volume of 90 µL Krebs buffer. 10 µL of 200 nM ^3H-cortisone was then added followed by incubation for at 37°C for a further 30 minutes. The assay was terminated by rapid freezing on dry ice. ^3H-cortisone to ^3H-cortisol conversion was determined in 50 µL of the defrosted reaction by capturing liberated ^3H-cortisol on 100 µL 1:8000 dilution anti-cortisol (HyTest Ltd)-coated scintillation proximity assay beads (protein A-coated YSi, GE Healthcare). The percentages of inhibition at every tested concentration were analyzed using a non-linear regression curve fitting (variable slope) by using the software GraphPad Prism 5.0.

T2 sequence (P28845 whole entry): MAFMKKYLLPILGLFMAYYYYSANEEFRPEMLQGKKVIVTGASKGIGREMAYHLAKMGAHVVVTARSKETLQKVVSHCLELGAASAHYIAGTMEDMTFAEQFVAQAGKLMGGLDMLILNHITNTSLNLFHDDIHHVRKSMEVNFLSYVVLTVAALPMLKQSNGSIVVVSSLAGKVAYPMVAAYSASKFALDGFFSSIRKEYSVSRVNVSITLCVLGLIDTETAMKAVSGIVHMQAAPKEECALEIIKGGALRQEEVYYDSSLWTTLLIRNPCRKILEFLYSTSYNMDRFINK

SMILES	IC50 [1] [nM]	inhibition at 10 µM [2] [%]	IC50 [3] [nM]
O=C(C1CCCCC1)N1CC2[C@@H](C1)[C@H]1C=C[C@@H]2[C@@H]2C[C@H]12 (stereo partly drawn) [Example 1, cyclohexyl((4R,4aR,5aS,6S,6aS)-3,3a,4,4a,5,5a,6,6a-octahydro-4,6-etheno-cyclopropa[f]isoindol-2(1H)-yl)methanone]	≥ 1000	100	< 50
O=C(C1CCCCC1)N1CC2C3CCC(C4CC34)C2C1 [Example 2, cyclohexyl((4R,4aR,5aS,6S,6aS)-octahydro-4,6-ethanocyclopropa[f]iso-indol-2(1H)-yl)methanone]	< 100	100	< 50
CC(C)(C)C(=O)N1CC2[C@@H](C1)[C@H]1C=C[C@@H]2[C@@H]2C[C@H]12 (stereo partly drawn) [Example 7, 2,2-dimethyl-1-((4R,4aR,5aS,6S,6aS)-3,3a,4,4a,5,5a,6,6a-octahydro-4,6-ethenocyclopropa[f]isoindol-2(1H)-yl)propan-1-one]	≥ 1000	85	500 to 1000
Nc1c(Cl)cc(C(=O)N2CC3[C@@H](C2)[C@H]2C=C[C@@H]3[C@@H]3C[C@H]23)cc1Cl (stereo partly drawn) [Example 9, (4-amino-3,5-dichlorophenyl)((4R,4aR,5aS,6S,6aS)-3,3a,4,4a,5,5a,6,6a-octahydro-4,6-ethenocyclopropa[f]isoindol-2(1H)-yl)methanone]	100 to 1000	77	< 50

The next lines start with the values.

IC50 [1] [nM]	inhibition at 10 µM [2] [%]	IC50 [3] [nM]	SMILES
100 to 1000	41	< 50	O=C(C1CC=CCC1)N1CC2[C@@H](C1)[C@H]1C=C[C@@H]2[C@@H]2C[C@H]12 (stereo partly drawn) [Example 10, cyclohex-3-en-1-yl((4R,4aR,5aS,6S,6aS)-3,3a,4,4a,5,5a,6,6a-octahydro-4,6-ethenocyclopropa[f]isoindol-2(1H)-yl)methanone]
≥ 1000	100	50 to 500	N#Cc1ccc(N2CCN(c3ccc(C(=O)N4CC5[C@@H](C4)[C@H]4C=C[C@@H]5[C@@H]5C[C@H]45)cn3)CC2)cc1 (stereo partly drawn) [Example 15, 4-(4-(5-((4R,4aR,5aS,6S,6aS)-1,2,3,3a,4,4a,5,5a,6,6a-decahydro-4,6-ethenocyclopropa[f]isoindole-2-carbonyl)pyridin-2-yl)piperazin-1-yl)benzonitrile]
